Consider six molecules from US11965039B2, “Compstatin analogues and their medical uses” (priority 2018, dated 2024).

pIC50: −log10 of the molar value. Where two headings read alike, the source gives them in different places. Positions of bridges follow the written chain, without caps; N, C: chain ends. Non-standard residues stand in square brackets, D forms with d. Residues, ends and D or L forms follow the SMILES beside them. Trp(1-Me) = Cn1cc(C[C@H](N)C(=O)O)c2ccccc21; Sar = CNCC(=O)O

The test system of data set [1] is classical complement pathway. Kind of data set: In vitro haemolysis assay (inhibition of classical complement pathway). In kind it is cell-based, human. Conditions: human serum, sensitized sheep red blood cells. The essentials:
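Compound dilutions preincubated 15 min at room temperature with diluted human serum (titrated per batch for 70-90% maximal haemolysis), then antibody-sensitized sheep RBC (10^7/well) added for 30 min at 37 °C in Tris/casein buffer, pH 7.4. Stopped with EDTA; haemolysis read at 405 nm; IC50 by 4PL fit.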

A short description of data set [2]: Solubility test at 10 mg/mL (visual inspection and light scattering). Type of data set: physicochemical.
Where [3] appears, read: Table 3, given as upper bounds, read-out: IC50, inhibition of hemolysis.
Where [4] appears, read: Table 4, valine 3 vs isoleucine 3 pairs, read-out: CP hemolysis IC50.

As a reminder, the pIC50 is the negative decadic logarithm of the IC50, by convention in mol/L. `CC[C@H](C)[C@H](NC(C)=O)C(=O)N[C@H]1CSSC[C@@H](C(=O)N[C@H](C(=O)N[C@@H](CCC(=O)O)C(=O)NCC(=O)N[C@@H](CCC(=O)O)C(N)=O)[C@@H](C)O)NC(=O)[C@H](CCCNC(=N)N)NC(=O)[C@H](Cc2c[nH]cn2)NC(=O)[C@H](CCC(=O)O)NC(=O)CNC(=O)[C@H](Cc2c[nH]c3ccccc23)NC(=O)[C@H](CC(=O)O)NC(=O)[C@H](CCC(N)=O)NC(=O)[C@H](Cc2c[nH]c3ccccc23)NC(=O)[C@H]([C@@H](C)CC)NC1=O` [Compound 24] (Ac-ICIWQDWGEHRCTEGE-NH2; disulfide 2-12): the figures for the negative-log IC50 (pIC50) in data set [1] (setting [3]) and in data set [1] (setting [4]) were above 7.00 and 7.05, respectively. In addition, the “Solubility, Condition 1” value in data set [2] (Acetate pH 4) is recorded as “− (“−” denotes lack of solubility at the given condition, as UV absorbance at 340 nm exceeds 0.1 AU and/or it is visibly turbid or contains particles)”; in data set [2] (acetate pH 4.0, visual inspection and absorbance), “cloudy”. The “Solubility, Condition 2” value in data set [2] (Acetate pH 5) is “− (“−” denotes lack of solubility at the given condition, as UV absorbance at 340 nm exceeds 0.1 AU and/or it is visibly turbid or contains particles)”; in data set [2] (acetate pH 5.0, visual inspection and absorbance), “cloudy”. Besides, the “Solubility, Condition 3” value in data set [2] (Phosphate pH 6) is recorded as “− (“−” denotes lack of solubility at the given condition, as UV absorbance at 340 nm exceeds 0.1 AU and/or it is visibly turbid or contains particles)”; in data set [2] (phosphate pH 6.0, visual inspection and absorbance), “cloudy”. Also, in data set [2] (Phosphate pH 7), the “Solubility, Condition 4” value was “+ (“+” denotes solubility at the given condition, as determined by UV absorbance being less than 0.1 AU at 340 nm and the sample being clear when manually inspected)”. In addition, in data set [2] (Phosphate pH 7), the “Solubility, condition 4” value is given as “good”. The “Solubility, Condition 5” value in data set [2] (Phosphate pH 7.5) was “+ (“+” denotes solubility at the given condition, as determined by UV absorbance being less than 0.1 AU at 340 nm and the sample being clear when manually inspected)”. Besides, the “Solubility, condition 5” value in data set [2] (Phosphate pH 7.5) is on record as “good”.
As to `CC[C@H](C)[C@@H]1NC(=O)[C@@H](NC(=O)[C@@H](NC(=O)[C@H](CCC(=O)O)NC(=O)[C@H](CO)NC(C)=O)[C@@H](C)CC)CSSC[C@@H](C(=O)N[C@H](C(=O)N[C@@H](CCC(=O)O)C(=O)N[C@@H](C)C(N)=O)[C@@H](C)O)NC(=O)[C@H](CCCNC(=N)N)NC(=O)[C@H](Cc2c[nH]cn2)NC(=O)[C@H](CCC(=O)O)NC(=O)CNC(=O)[C@H](Cc2c[nH]c3ccccc23)NC(=O)[C@H](CC(=O)O)NC(=O)[C@H](CCC(N)=O)NC(=O)[C@H](Cc2c[nH]c3ccccc23)NC1=O` [Compound 32] (Ac-SEICIWQDWGEHRCTEA-NH2; disulfide 4-14), the pIC50 in data set [1] (setting [3]) is above 7.00. The “Solubility, Condition 1” value in data set [2] (Acetate pH 4) is on record as “− (“−” denotes lack of solubility at the given condition, as UV absorbance at 340 nm exceeds 0.1 AU and/or it is visibly turbid or contains particles)”. The “Solubility, Condition 2” value in data set [2] (Acetate pH 5) is listed as “− (“−” denotes lack of solubility at the given condition, as UV absorbance at 340 nm exceeds 0.1 AU and/or it is visibly turbid or contains particles)”. In addition, the “Solubility, Condition 3” value in data set [2] (Phosphate pH 6) is “− (“−” denotes lack of solubility at the given condition, as UV absorbance at 340 nm exceeds 0.1 AU and/or it is visibly turbid or contains particles)”. Also, the “Solubility, Condition 4” value in data set [2] (Phosphate pH 7) is “+ (“+” denotes solubility at the given condition, as determined by UV absorbance being less than 0.1 AU at 340 nm and the sample being clear when manually inspected)”. Further, the “Solubility, Condition 5” value in data set [2] (Phosphate pH 7.5) is “+ (“+” denotes solubility at the given condition, as determined by UV absorbance being less than 0.1 AU at 340 nm and the sample being clear when manually inspected)”.
Take `CC[C@H](C)[C@@H]1NC(=O)[C@@H](NC(=O)[C@H](Cc2ccccc2)NC(=O)[C@H](C)NC(=O)[C@H](CO)NC(=O)CNC(=O)[C@H](CCC(=O)O)NC(C)=O)CSSC[C@@H](C(=O)N[C@H](C(=O)N[C@@H](CCC(=O)O)C(N)=O)[C@@H](C)O)NC(=O)[C@H](CCCNC(=N)N)NC(=O)[C@H](Cc2c[nH]cn2)NC(=O)[C@H](CCC(=O)O)NC(=O)CNC(=O)[C@H](Cc2c[nH]c3ccccc23)NC(=O)[C@H](CC(=O)O)NC(=O)[C@H](CCC(N)=O)NC(=O)[C@H](Cc2cn(C)c3ccccc23)NC1=O` [Compound 57] (Ac-EGSAFCI[Trp(1-Me)]QDWGEHRCTE-NH2; disulfide 6-16): the pIC50 in data set [1] (setting [3]) was above 7.00. In addition, in data set [2] (Acetate pH 4), the “Solubility, Condition 1” value is given as “− (“−” denotes lack of solubility at the given condition, as UV absorbance at 340 nm exceeds 0.1 AU and/or it is visibly turbid or contains particles)”. Besides, the “Solubility, Condition 2” value in data set [2] (Acetate pH 5) was “− (“−” denotes lack of solubility at the given condition, as UV absorbance at 340 nm exceeds 0.1 AU and/or it is visibly turbid or contains particles)”. Moreover, the “Solubility, Condition 3” value in data set [2] (Phosphate pH 6) was “+ (“+” denotes solubility at the given condition, as determined by UV absorbance being less than 0.1 AU at 340 nm and the sample being clear when manually inspected)”. Besides, the “Solubility, Condition 4” value in data set [2] (Phosphate pH 7) is “+ (“+” denotes solubility at the given condition, as determined by UV absorbance being less than 0.1 AU at 340 nm and the sample being clear when manually inspected)”. In data set [2] (Phosphate pH 7.5), the “Solubility, Condition 5” value is “+ (“+” denotes solubility at the given condition, as determined by UV absorbance being less than 0.1 AU at 340 nm and the sample being clear when manually inspected)”.
For the molecule `CC[C@H](C)[C@H](NC(C)=O)C(=O)N[C@H]1CSSC[C@@H](C(=O)N[C@H](C(=O)NCC(=O)N[C@@H](C)C(=O)N[C@@H](CCC(=O)O)C(=O)N[C@@H](CO)C(N)=O)[C@@H](C)O)NC(=O)[C@H](CCCNC(=N)N)NC(=O)[C@H](Cc2c[nH]cn2)NC(=O)[C@H](CCC(=O)O)NC(=O)CNC(=O)[C@H](Cc2c[nH]c3ccccc23)NC(=O)[C@H](CC(=O)O)NC(=O)[C@H](CCC(N)=O)NC(=O)[C@H](Cc2c[nH]c3ccccc23)NC(=O)[C@H]([C@@H](C)CC)NC1=O` [Compound 15] (Ac-ICIWQDWGEHRCTGAES-NH2; disulfide 2-12), the pIC50 was above 7.00 in data set [1] (setting [3]) and 7.33 in data set [1] (setting [4]). In addition, in data set [2] (Acetate pH 4), the “Solubility, Condition 1” value was “+ (“+” denotes solubility at the given condition, as determined by UV absorbance being less than 0.1 AU at 340 nm and the sample being clear when manually inspected)”. For the same molecule, the “Solubility, Condition 2” value in data set [2] (Acetate pH 5) is on record as “− (“−” denotes lack of solubility at the given condition, as UV absorbance at 340 nm exceeds 0.1 AU and/or it is visibly turbid or contains particles)”. In addition, the “Solubility, Condition 3” value in data set [2] (Phosphate pH 6) was “− (“−” denotes lack of solubility at the given condition, as UV absorbance at 340 nm exceeds 0.1 AU and/or it is visibly turbid or contains particles)”. In addition, the “Solubility, Condition 4” value in data set [2] (Phosphate pH 7) was “+ (“+” denotes solubility at the given condition, as determined by UV absorbance being less than 0.1 AU at 340 nm and the sample being clear when manually inspected)”. The “Solubility, Condition 5” value in data set [2] (Phosphate pH 7.5) was “+ (“+” denotes solubility at the given condition, as determined by UV absorbance being less than 0.1 AU at 340 nm and the sample being clear when manually inspected)”.
Turning to `CC[C@H](C)[C@H](NC(C)=O)C(=O)N[C@H]1CSSC[C@@H](C(=O)N[C@H](C(N)=O)[C@@H](C)O)NC(=O)[C@H](CCCNC(=N)N)NC(=O)[C@H](Cc2c[nH]cn2)NC(=O)[C@H](C)NC(=O)CNC(=O)[C@H](Cc2c[nH]c3ccccc23)NC(=O)[C@H](CC(=O)O)NC(=O)[C@H](CCC(N)=O)NC(=O)[C@H](Cc2c[nH]c3ccccc23)NC(=O)[C@H]([C@@H](C)CC)NC1=O` [Compound 1] (Ac-ICIWQDWGAHRCT-NH2; disulfide 2-12), the negative-log IC50 (pIC50) in data set [1] (Table 2, read-out: CP hemolysis IC50) is 6.82; in data set [1] (setting [3]) it was above 6.60. Also, the “Solubility, Condition 1” value in data set [2] (Acetate pH 4) was “+ (“+” denotes solubility at the given condition, as determined by UV absorbance being less than 0.1 AU at 340 nm and the sample being clear when manually inspected)”. Further, the “Solubility, Condition 2” value in data set [2] (Acetate pH 5) is recorded as “− (“−” denotes lack of solubility at the given condition, as UV absorbance at 340 nm exceeds 0.1 AU and/or it is visibly turbid or contains particles)”. In addition, the “Solubility, Condition 3” value in data set [2] (Phosphate pH 6) was “− (“−” denotes lack of solubility at the given condition, as UV absorbance at 340 nm exceeds 0.1 AU and/or it is visibly turbid or contains particles)”. The “Solubility, Condition 4” value in data set [2] (Phosphate pH 7) is given as “− (“−” denotes lack of solubility at the given condition, as UV absorbance at 340 nm exceeds 0.1 AU and/or it is visibly turbid or contains particles)”. In addition, in data set [2] (Phosphate pH 7.5), the “Solubility, Condition 5” value is given as “− (“−” denotes lack of solubility at the given condition, as UV absorbance at 340 nm exceeds 0.1 AU and/or it is visibly turbid or contains particles)”.
For `CC[C@H](C)[C@H](NC(=O)[C@H](C)NC(=O)[C@H](CO)NC(=O)CNC(C)=O)C(=O)N[C@H]1CSSC[C@@H](C(=O)N(C)CC(=O)N[C@@H](CCC(=O)O)C(N)=O)NC(=O)[C@H](CCCNC(=N)N)NC(=O)[C@H](Cc2c[nH]cn2)NC(=O)[C@H](CCC(=O)O)NC(=O)CNC(=O)[C@H](Cc2c[nH]c3ccccc23)NC(=O)[C@H](CC(=O)O)NC(=O)[C@H](CCC(N)=O)NC(=O)[C@H](Cc2c[nH]c3ccccc23)NC(=O)[C@H]([C@@H](C)CC)NC1=O` [Compound 40] (Ac-GSAICIWQDWGEHRC[Sar]E-NH2; disulfide 5-15), the pIC50 in data set [1] (setting [3]) was above 6.60. Also, the “Solubility, Condition 1” value in data set [2] (Acetate pH 4) is recorded as “− (“−” denotes lack of solubility at the given condition, as UV absorbance at 340 nm exceeds 0.1 AU and/or it is visibly turbid or contains particles)”. In data set [2] (Acetate pH 5), the “Solubility, Condition 2” value was “− (“−” denotes lack of solubility at the given condition, as UV absorbance at 340 nm exceeds 0.1 AU and/or it is visibly turbid or contains particles)”. In addition, the “Solubility, Condition 3” value in data set [2] (Phosphate pH 6) is “+ (“+” denotes solubility at the given condition, as determined by UV absorbance being less than 0.1 AU at 340 nm and the sample being clear when manually inspected)”. Further, in data set [2] (Phosphate pH 7), the “Solubility, Condition 4” value was “+ (“+” denotes solubility at the given condition, as determined by UV absorbance being less than 0.1 AU at 340 nm and the sample being clear when manually inspected)”. Besides, in data set [2] (Phosphate pH 7.5), the “Solubility, Condition 5” value was “+ (“+” denotes solubility at the given condition, as determined by UV absorbance being less than 0.1 AU at 340 nm and the sample being clear when manually inspected)”.
